Test results taken from US20120328628A1, “ANTIBODIES TO CONFORMATIONALLY TRAPPED PROTEINS” (The Regents of the University of California, priority 2006, published 2012).

Molecular target: T1, wild-type caspase-1 (Homo sapiens, UniProt P29466)
T1 construct: single site alanine mutants for each of these residues in either the p10 or p20 subunit; made in house; E. coli is printed only for caspase-4/-5 made by the caspase-1 procedure
T1 sequence (P29466 120-297 limits assumed): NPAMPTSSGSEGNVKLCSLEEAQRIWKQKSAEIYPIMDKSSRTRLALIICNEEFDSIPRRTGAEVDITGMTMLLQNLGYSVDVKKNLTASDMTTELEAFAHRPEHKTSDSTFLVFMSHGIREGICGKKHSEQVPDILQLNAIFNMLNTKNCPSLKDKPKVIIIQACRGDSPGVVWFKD
T1 sequence (P29466 317-404 limits assumed): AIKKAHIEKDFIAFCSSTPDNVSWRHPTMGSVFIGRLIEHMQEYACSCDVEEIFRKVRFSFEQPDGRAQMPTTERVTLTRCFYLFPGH
Test: Titration of wild-type caspase-1 with z-VAD-FMK
Type: biochemical
Text: To test this, wild-type caspase-1 was titrated with inhibitor and found to produce a 2-fold activation when one reaches 0.2 equivalents of z-VAD-FMK. […] If the inhibitor labeled in a non-cooperative fashion we would expect that it would reach an optimum upon addition of about 0.5 equivalents and would cause a […] activation as half of the sites are inactivated. The fact this maxima is below 0.5 equivalents and is less than […] probably reflects that labeling is cooperative too. […] Thus, we have developed a second assay for evaluating the active site coupling.

activation of wild-type caspase-1 (0.2 equivalents of inhibitor): 2 fold
inhibition of wild-type caspase-1 (approaching one equivalent of inhibitor): complete inhibition
Substance: z-VAD-FMK
